Laboratory results as given in the supplement of paper PMC11986102.

Key:
Assay in all cases: OD600 after 10 h growth (baseline-subtracted); higher = more bacterial growth (less inhibition)
[1] = system: Staphylococcus aureus Newman
Experimental: (§1)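 Broth microdilution growth assay in Mueller Hinton broth, 100 µL in 96-well plates, inoculated 1:200 from OD600 0.1 overnight cultures by pinning, 37 °C with shaking at 800 rpm, 1:2 serial dilutions from 128 µg/mL (64 µg/mL for Ebastine). The read-out is OD600 after 10 h; curves were baseline-corrected by subtracting the minimum of the 2nd-4th measurements. Three biological replicates, with water and DMSO no-compound controls.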

[2] = system: Klebsiella pneumoniae MKP103
Experimental: as §1

[3] = system: Escherichia coli CFT073 (UPEC)
Experimental: as §1

Escherichia coli IAI1 = system: Escherichia coli IAI1
Experimental: as §1

[4] = system: Pseudomonas aeruginosa PA14
Experimental: as §1

CC(=O)N[C@H](Cc1ccc2ccccc2c1)C(=O)N[C@H](Cc1ccc(Cl)cc1)C(=O)N[C@H](Cc1cccnc1)C(=O)N[C@@H](CO)C(=O)N[C@@H](Cc1ccc(O)cc1)C(=O)N[C@H](CCCNC(N)=O)C(=O)N[C@@H](CC(C)C)C(=O)N[C@@H](CCCNC(=N)N)C(=O)N1CCC[C@H]1C(=O)N[C@H](C)C(N)=O [Cetrorelix]
OD600 after 10 h growth
Conditions	Escherichia coli IAI1	[1]	[2]	[3]	[4]
0.1 µg/mL	0.865	1.08	0.674	0.804	0.741
0.2 µg/mL	0.872	1.08	0.679	0.832	0.742
0.5 µg/mL	0.829	1.08	0.687	0.8273	0.742
1 µg/mL	0.828	1.1	0.693	0.812	0.727
2 µg/mL	0.831	1.1	0.702	0.827	0.726
4 µg/mL	0.821	1.11	0.701	0.83	0.736
8 µg/mL	0.831	1.11	0.707	0.806	0.736
16 µg/mL	0.837	1.117	0.712	0.81	0.754
32 µg/mL	0.814	1.117	0.717	0.792	0.763
64 µg/mL	0.8	1.09	0.69	0.807	0.749
128 µg/mL	0.786	1.05	0.679	0.77	0.756

CC(C)(C)c1ccc(C(=O)CCCN2CCC(OC(c3ccccc3)c3ccccc3)CC2)cc1 [Ebastine]
OD600 after 10 h growth
Conditions	Escherichia coli IAI1	[1]	[2]	[3]	[4]
0.05 µg/mL	0.808	1.11	0.665	0.78	0.75
0.1 µg/mL	0.807	1.08	0.667	0.781	0.752
0.2 µg/mL	0.796	1.14	0.666	0.783	0.742
0.5 µg/mL	0.793	1.06	0.666	0.789	0.744
1 µg/mL	0.812	1.15	0.671	0.798	0.754
2 µg/mL	0.816	1.1	0.681	0.792	0.842
4 µg/mL	0.808	1.05	0.787	0.797	0.749
8 µg/mL	0.81	1.03	0.678	0.803	0.743
16 µg/mL	0.848	0.987	0.661	0.792	0.725
32 µg/mL	0.778	0.991	0.647	0.775	0.697
64 µg/mL	0.754	1.02	0.613	0.755	0.603

COc1cc2c(cc1Cc1cccc(Cl)c1F)c(=O)c(C(=O)O)cn2[C@H](CO)C(C)C [Elvitegravir]
OD600 after 10 h growth
Conditions	Escherichia coli IAI1	[1]	[2]	[3]	[4]
0.1 µg/mL	0.803	1.07	0.671	0.782	0.752
0.2 µg/mL	0.846	1.07	0.666	0.768	0.747
0.5 µg/mL	0.816	1.08	0.672	0.793	0.751
1 µg/mL	0.808	1.08	0.664	0.81	0.748
2 µg/mL	0.82	1.08	0.671	0.812	0.761
4 µg/mL	0.818	0.309	0.675	0.804	0.756
8 µg/mL	0.834	0.0327	0.681	0.793	0.758
16 µg/mL	0.836	0.0197	0.675	0.807	0.743
32 µg/mL	0.812	0.00533	0.651	0.806	0.689
64 µg/mL	0.784	0	0.625	0.766	0.661
128 µg/mL	0.771	0.013	0.596	0.733	0.588

Cc1c(Cl)c(C)[n+]([O-])c(Cl)c1-c1noc(-c2cc(O)c(O)c([N+](=O)[O-])c2)n1 [Opicapone]
OD600 after 10 h growth
Conditions	Escherichia coli IAI1	[1]	[2]	[3]	[4]
0.1 µg/mL	0.811	1.07	0.664	0.786	0.743
0.2 µg/mL	0.855	1.07	0.668	0.788	0.743
0.5 µg/mL	0.822	1.07	0.669	0.94	0.764
1 µg/mL	0.815	1.07	0.681	0.787	0.829
2 µg/mL	0.818	1.09	0.744	0.786	0.747
4 µg/mL	0.802	1.18	0.791	0.872	0.81
8 µg/mL	0.797	1.07	0.839	1.02	0.709
16 µg/mL	0.798	0.413	0.781	0.787	0.677
32 µg/mL	0.801	0.371	0.682	0.775	0.678
64 µg/mL	0.792	0.466	0.669	0.796	0.658
128 µg/mL	0.767	0.356	0.632	0.758	0.603

Cc1cn([C@H]2C[C@H](O)[C@@H](CO)O2)c(=O)[nH]c1=O [Thymidine]
OD600 after 10 h growth
Conditions	Escherichia coli IAI1	[1]	[2]	[3]	[4]
0.1 µg/mL	0.814	1.08	0.666	0.783	0.756
0.2 µg/mL	0.952	1.07	0.669	0.956	0.899
0.5 µg/mL	0.803	1.07	0.67	0.788	0.749
1 µg/mL	0.802	1.22	0.666	0.794	0.748
2 µg/mL	0.81	1.16	0.674	0.891	0.758
4 µg/mL	0.808	1.39	0.69	0.89	0.853
8 µg/mL	0.805	1.28	0.838	0.932	0.748
16 µg/mL	0.804	1.23	0.773	0.873	0.745
32 µg/mL	0.792	1.1	0.684	0.804	0.738
64 µg/mL	0.782	1.09	0.672	0.786	0.718
128 µg/mL	0.772	1.1	0.645	0.772	0.645

CC1=C(C)C(=O)C(CCCCCCCCCC[P+](c2ccccc2)(c2ccccc2)c2ccccc2)=CC1=O [Visomitin]
OD600 after 10 h growth
Conditions	Escherichia coli IAI1	[1]	[2]	[3]	[4]
0.1 µg/mL	0.805	1.08	0.672	0.786	0.762
0.2 µg/mL	0.808	1.08	0.672	0.787	0.757
0.5 µg/mL	0.8	1.09	0.676	0.785	0.757
1 µg/mL	0.848	1.08	0.674	0.785	0.754
2 µg/mL	0.815	0.0277	0.679	0.818	0.856
4 µg/mL	0.795	0.0387	0.686	0.809	0.821
8 µg/mL	0.769	0.0433	0.697	0.777	0.733
16 µg/mL	0.045	0.0257	0.7	0.0113	0.717
32 µg/mL	0.0307	0.0217	0.196	0.007	0.681
64 µg/mL	0.032	0.0133	0.00967	0.0133	0.0773
128 µg/mL	0.0327	0.025	0.0183	0.024	0.0423
